# What was measured:
# Assay type in all cases: cell-based
# cyclooxygenase [1] = molecular target: T1, cyclooxygenase (Rattus norvegicus, UniProt Q63921); assay: ARBC whole cell cyclooxygenase assay (RBL-1 cells, PGF2α formation by RIA); design: key: N @ 10 μmolar is not active at 10 μmolar; settings: RBL-1 whole cells; @ 10 μM
# T1 construct: host or cells: RBL-1 (rat basophilic leukemia) cells
# T1 sequence (Q63921 27-602): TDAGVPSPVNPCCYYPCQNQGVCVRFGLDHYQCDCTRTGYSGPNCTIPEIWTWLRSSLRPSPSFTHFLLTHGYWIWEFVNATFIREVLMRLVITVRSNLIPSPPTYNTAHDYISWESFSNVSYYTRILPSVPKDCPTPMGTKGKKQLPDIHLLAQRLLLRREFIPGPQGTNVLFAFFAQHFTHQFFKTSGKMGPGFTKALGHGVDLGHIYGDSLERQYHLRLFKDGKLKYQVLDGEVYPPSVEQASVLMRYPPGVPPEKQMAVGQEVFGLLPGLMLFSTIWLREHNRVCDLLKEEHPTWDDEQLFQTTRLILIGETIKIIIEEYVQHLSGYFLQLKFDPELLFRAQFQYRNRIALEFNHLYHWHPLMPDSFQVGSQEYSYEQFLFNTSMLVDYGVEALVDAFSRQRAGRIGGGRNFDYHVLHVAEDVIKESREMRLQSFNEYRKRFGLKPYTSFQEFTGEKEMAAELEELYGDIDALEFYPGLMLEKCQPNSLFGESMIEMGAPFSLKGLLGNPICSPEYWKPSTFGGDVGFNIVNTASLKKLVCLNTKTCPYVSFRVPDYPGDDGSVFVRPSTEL
# Procedure: (§1) ARBL/ARBC Whole Cell 5-Lipoxygenase and Cyclooxyqenase Assays
# (§2) The rat basophilic leukemia cell line (RBL-1) was obtained from the American Type Culture Collection (Rockville, Md.).
# (§3) Radioimmunoassay (RIA) kits for LTB4 and PGF2α determination were obtained from Amersham (Arlington Heights, Ill.) and Seragen (Boston, Mass.), respectively.
# RBL-1 cells are grown in suspension culture in Eagle's minimum essential medium supplemented with 12% fetal bovine serum at 37° C. in an incubator supplied with air-5% carbon dioxide. Cells are harvested by centrifugation. They are washed with cold phosphate buffered saline pH 7.4 (PBS; NaCl, 7.1 g; Na2 HPO4, 1.15 g; KH2 PO4, 0.2 g; and KCl, 0.2 g/L). Cells are finally suspended in PBS containing 1.0 mM calcium at a density of 2×10^6 cells/mL. Cells are incubated with and without test agent (in DMSO) (1% DMSO is without effect on arachidonic acid metabolism) for 10 minutes at room temperature. Calcium inonophore A23187 (5 μM) is added and cells are incubated for 7 minutes at 37° C. The reaction is stopped by chilling the tubes on ice for 10 minutes. Cells are separated by centrifugation and the supernatant is stored at -20° . Aliquots (100 μL) are analyzed for LTB4 and PGF2α using radioimmunoassay kits as provided by the supplier. […]
# 5-lipoxygenase [2] = molecular target: T2, 5-lipoxygenase (Rattus norvegicus, UniProt P12527); assay: ARBL whole cell 5-lipoxygenase assay (RBL-1 cells, LTB4 formation by RIA); settings: RBL-1 whole cells; for inhibition at 10 µM / inhibition at 16 µM: read-out: ARBL % inhibition at the given micromolar concentration (LTB4 formation); for IC50: A23187 5 μM, read-out: ARBL IC50 (50% inhibition of LTB4 formation)
# T2 construct: host or cells: RBL-1 (rat basophilic leukemia) cells
# T2 sequence (P12527 1-673): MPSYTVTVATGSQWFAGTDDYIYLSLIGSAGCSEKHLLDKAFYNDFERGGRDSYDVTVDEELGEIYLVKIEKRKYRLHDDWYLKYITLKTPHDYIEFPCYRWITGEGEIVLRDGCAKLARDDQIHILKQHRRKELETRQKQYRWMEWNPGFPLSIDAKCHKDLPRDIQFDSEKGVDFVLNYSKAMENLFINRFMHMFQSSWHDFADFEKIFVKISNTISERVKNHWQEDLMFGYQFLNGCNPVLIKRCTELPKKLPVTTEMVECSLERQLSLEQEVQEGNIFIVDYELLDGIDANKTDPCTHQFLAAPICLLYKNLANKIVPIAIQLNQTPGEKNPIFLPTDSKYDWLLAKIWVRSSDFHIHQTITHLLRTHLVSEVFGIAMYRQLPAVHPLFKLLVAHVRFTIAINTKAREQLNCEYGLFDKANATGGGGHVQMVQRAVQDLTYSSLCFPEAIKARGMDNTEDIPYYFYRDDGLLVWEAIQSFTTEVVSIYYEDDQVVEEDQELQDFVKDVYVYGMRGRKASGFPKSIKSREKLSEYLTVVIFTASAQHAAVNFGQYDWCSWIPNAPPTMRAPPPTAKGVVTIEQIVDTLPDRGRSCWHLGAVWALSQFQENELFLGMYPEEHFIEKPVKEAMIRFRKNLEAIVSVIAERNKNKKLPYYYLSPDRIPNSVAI
# Procedure: as §1, §2, §3
# (§4) RBL-1 cells are grown in suspension culture in Eagle's minimum essential medium supplemented with 12% fetal bovine serum at 37° C. in an incubator supplied with air-5% carbon dioxide. Cells are harvested by centrifugation. They are washed with cold phosphate buffered saline pH 7.4 (PBS; NaCl, 7.1 g; Na2 HPO4, 1.15 g; KH2 PO4, 0.2 g; and KCl, 0.2 g/L). Cells are finally suspended in PBS containing 1.0 mM calcium at a density of 2×10^6 cells/mL. Cells are incubated with and without test agent (in DMSO) (1% DMSO is without effect on arachidonic acid metabolism) for 10 minutes at room temperature. Calcium inonophore A23187 (5 μM) is added and cells are incubated for 7 minutes at 37° C. The reaction is stopped by chilling the tubes on ice for 10 minutes. Cells are separated by centrifugation and the supernatant is stored at -20° . Aliquots (100 μL) are analyzed for LTB4 and PGF2α using radioimmunoassay kits as provided by the supplier.
# (§5) Table 1 contains biochemical data obtained from this whole cell assay as IC50 s which are calculated as the concentration of test compound causing 50% inhibition of LTB4 or PGF2α formation or in percent inhibition at the given micromolar concentration. N at 10 or 16 is not active at 10 μmolar or 16 μmolar.
# cyclooxygenase [3] = molecular target: T1, cyclooxygenase; assay: ARBC whole cell cyclooxygenase assay (RBL-1 cells, PGF2α formation by RIA); settings: RBL-1 whole cells; for IC50: A23187 5 μM, read-out: ARBC IC50 (50% inhibition of PGF2α formation)
# Procedure: as §1, §2, §3, §4, §5
# cyclooxygenase [4] = molecular target: T1, cyclooxygenase; assay: as above; design: key: N @ 16 μmolar is not active at 16 μmolar; settings: RBL-1 whole cells; @ 16 μM
# Procedure: as §1, §2, §3, §4, §5
# 5-lipoxygenase [5] = molecular target: T2, 5-lipoxygenase; assay: ARBL whole cell 5-lipoxygenase assay (RBL-1 cells, LTB4 formation by RIA); design: key: N @ 10 μmolar is not active at 10 μmolar; settings: RBL-1 whole cells; @ 10 μM
# Procedure: as §1, §2, §3, §4, §5
# 5-lipoxygenase [6] = molecular target: T2, 5-lipoxygenase; assay: as above; design: key: N @ 16 μmolar is not active at 16 μmolar; settings: RBL-1 whole cells; @ 16 μM
# Procedure: as §1, §2, §3, §4, §5
# [7] = read-out: ARBC % inhibition at the given micromolar concentration (PGF2α formation)
smiles,measurement,setting,value
"COC(=O)c1ccccc1Nc1cccc(C(C)N(O)C(C)=O)c1Cl (stereo not drawn) [Example 33, 2-[[3-[1-(acetylhydroxyamino)ethyl]-2-chlorophenyl]amino]benzoic acid methyl ester]",ARBC activity (N = not active),cyclooxygenase [1],N
same,inhibition at 10 µM,5-lipoxygenase [2],100%
COC(=O)c1ccccc1Nc1cccc(CN(O)C(C)=O)c1C [Example 34],IC50,cyclooxygenase [3],10 µM
same,IC50,5-lipoxygenase [2],< 0.0625 µM
COC(=O)c1ccccc1Nc1cccc(C(C)N(O)C(C)=O)c1C (stereo not drawn) [Example 35],ARBC activity (N = not active),cyclooxygenase [1],N
same,inhibition at 10 µM,5-lipoxygenase [2],100%
COC(=O)c1ccccc1Nc1c(C)ccc(C(C)N(O)C(C)=O)c1C (stereo not drawn) [Example 36],ARBC activity (N = not active),cyclooxygenase [4],N
same,inhibition at 16 µM,5-lipoxygenase [2],100%
COC(=O)c1ccccc1Nc1cccc(CN(O)C(C)=O)c1Cl [Example 37],IC50,cyclooxygenase [3],4.3 µM
same,IC50,5-lipoxygenase [2],0.58 µM
COC(=O)c1ccccc1Nc1c(Cl)ccc(CN(O)C(C)=O)c1Cl [Example 38],IC50,cyclooxygenase [3],6 µM
same,IC50,5-lipoxygenase [2],0.36 µM
COC(=O)c1ccccc1Nc1c(Cl)ccc(C(C)N(O)C(C)=O)c1Cl (stereo not drawn) [Example 39],inhibition at 10 µM,cyclooxygenase [3]; [7],52%
same,inhibition at 10 µM,5-lipoxygenase [2],100%
"CCOC(=O)N(O)Cc1cccc(Nc2ccccc2C(=O)OC)c1Cl [Example 40, 2-[[2-chloro-3-[[(ethoxycarbonyl)hydroxyamino]methyl]phenyl]amino]benzoic acid, methyl ester]",IC50,cyclooxygenase [3],0.67 µM
same,IC50,5-lipoxygenase [2],0.21 µM
"CCOC(=O)N(O)Cc1cccc(Nc2ccccc2C(=O)OC)c1C [Example 41, 2-[[3-[[(Ethoxycarbonyl)hydroxyamino]methyl]-2-methylphenyl]amino]benzoic acid methyl ester]",IC50,cyclooxygenase [3],8.7 µM
same,IC50,5-lipoxygenase [2],0.39 µM
CCOC(=O)N(O)Cc1ccc(Cl)c(Nc2ccccc2C(=O)OC)c1Cl [Example 42],IC50,cyclooxygenase [3],3.7 µM
same,IC50,5-lipoxygenase [2],0.33 µM
CCOC(=O)N(O)C(C)c1ccc(C)c(Nc2ccccc2C(=O)OC)c1C (stereo not drawn) [Example 43],ARBC activity (N = not active),cyclooxygenase [4],N
same,inhibition at 16 µM,5-lipoxygenase [2],100%
"CNC(=O)N(O)Cc1cccc(Nc2ccccc2C(=O)OC)c1C [Example 44, 2-[[3-[[Hydroxy[(methylamino)carbonyl]amino]methyl]-2-methylphenyl]amino]benzoic acid methyl ester]",inhibition at 16 µM,cyclooxygenase [3]; [7],43%
same,inhibition at 16 µM,5-lipoxygenase [2],> 95%
"CNC(=O)N(O)Cc1cccc(Nc2ccccc2C(=O)OC)c1Cl [Example 46, 2-[[2-Chloro-3-[[hydroxy[(methylamino)carbonyl]amino]methyl]phenyl]amino]benzoic acid methyl ester]",IC50,cyclooxygenase [3],4.7 µM
same,IC50,5-lipoxygenase [2],0.36 µM
CC(=O)N(O)C(C)c1cccc(Nc2ccccc2C(=O)O)c1Cl (stereo not drawn) [Example 47],ARBL activity (N = not active),5-lipoxygenase [5],N
same,inhibition at 10 µM,cyclooxygenase [3]; [7],79%
CC(=O)N(O)Cc1cccc(Nc2ccccc2C(=O)O)c1C [Example 48],ARBL activity (N = not active),5-lipoxygenase [5],N
same,IC50,cyclooxygenase [3],1.9 µM
CCOC(=O)N(O)Cc1cccc(Nc2ccccc2C(=O)O)c1C [Example 49],ARBL activity (N = not active),5-lipoxygenase [6],N
same,inhibition at 0.25 µM,"cyclooxygenase [3]; @ 0.25 μM, read-out: ARBC % inhibition at the given micromolar concentration (PGF2α formation)",67%
CNC(=O)N(O)Cc1cccc(Nc2ccccc2C(=O)O)c1C [Example 50],ARBL activity (N = not active),5-lipoxygenase [6],N
same,inhibition at 16 µM,cyclooxygenase [3]; [7],56%
CC(=O)N(O)C(C)c1cccc(Nc2ccccc2C(=O)O)c1C (stereo not drawn) [Example 51],ARBL activity (N = not active),5-lipoxygenase [6],N
same,inhibition at 10 µM,cyclooxygenase [3]; [7],70%
CC(=O)N(O)C(C)c1ccc(C)c(Nc2ccccc2C(=O)O)c1C (stereo not drawn) [Example 52],ARBL activity (N = not active),5-lipoxygenase [6],N
same,ARBC activity (N = not active),cyclooxygenase [4],N
CCOC(=O)N(O)C(C)c1ccc(C)c(Nc2ccccc2C(=O)O)c1C (stereo not drawn) [Example 53],ARBL activity (N = not active),5-lipoxygenase [6],N
same,inhibition at 16 µM,cyclooxygenase [3]; [7],53%
CC(=O)N(O)Cc1cccc(Nc2ccccc2C(=O)O)c1Cl [Example 54],ARBL activity (N = not active),5-lipoxygenase [5],N
same,inhibition at 10 µM,cyclooxygenase [3]; [7],87%
CC(=O)N(O)Cc1ccc(Cl)c(Nc2ccccc2C(=O)O)c1Cl [Example 55],ARBL activity (N = not active),5-lipoxygenase [5],N
same,inhibition at 10 µM,cyclooxygenase [3]; [7],83%
CCOC(=O)N(O)Cc1ccc(Cl)c(Nc2ccccc2C(=O)O)c1Cl [Example 56],inhibition at 16 µM,cyclooxygenase [3]; [7],89%
same,inhibition at 16 µM,5-lipoxygenase [2],47%
CC(=O)N(O)C(C)c1ccc(Cl)c(Nc2ccccc2C(=O)O)c1Cl (stereo not drawn) [Example 57],ARBL activity (N = not active),5-lipoxygenase [5],N
same,inhibition at 10 µM,cyclooxygenase [3]; [7],53%
